Reference: patent US12528792B2, “Sulfonamide compounds and the use thereof in the treatment of cancer” (TROBIO THERAPEUTICS PTY LTD, priority 2019, dated 2026)

Experiments:
Assay type in all cases: cell-based
A2780 (ovarian) cells = assay: Anti-proliferative activity, Cell-Titre luminescent viability assay; details: Homo sapiens, 72 h exposure, Cell-Titre luminescent reagent
Experimental: (§1) The ability of compounds of the disclosure to inhibit the proliferation of cancer cells representative of non-small cell lung cancer and ovarian cancer (Table 1), and pancreatic cancer, colorectal cancer and prostate cancer (Table 2) was assessed. Briefly, a predetermined number of cells as calculated from cell growth assays for each of the cell lines employed were seeded into their respective culture medium (using ATCC culture parameters—http://www.atcc.org) and cultured for 24 h at 37° C. and 5% CO2 in 96-well culture plates. Once attached, each cell line was then exposed to various concentrations of each respective analogue (100, 30, 10, 3, 1 and 0.3 µM or 30, 10, 3, 1, 0.3 and 0.1 μM), cultured for a further 72 h and exposed to Cell-Titre luminescent reagent (100 μL/well) for a further 30 min. Luminescence was captured using an EnVision multilabel reader and the data for each analogue concentration compared against no treatment control. Cell viability was normalised to control (vehicle alone) and dose response curves, and half maximal effective concentration (EC50) values were determined using Graph Pad Prism 6 (nonlinear regression sigmoidal dose-response variable slope).

A549 (NSCLC) cells = assay: as above; details: Homo sapiens, 72 h exposure, Cell-Titre luminescent reagent
Experimental: as §1

[1] = system: SK-N-SH neuroblastoma cells; assay: Cytotoxicity assay, MTS viability; details: Homo sapiens, 72 hours
Experimental: The ability of compounds of the disclosure to inhibit the proliferation of SK—N—SH neuroblastoma cells was assessed. The SK—N—SH cell line was maintained as a monolayer in Dulbeccos Modified Eagles medium (DMEM) supplemented with 10% foetal bovine serum (FBS) and grown at 37° C. in a humidified atmosphere with 5% CO2. For the cytotoxicity assay, SK—N—SH cells were seeded at a density of 2×10^3 cells per well in 96-well plates. The cells were treated with serial dilutions of the test compounds (1:2 starting concentration 100 µM) and viability measured after 72 hours using a standard MTS assay. Cell viability was normalised to control (vehicle alone) and dose response curves and EC50 values (Table 3) were determined using Graph Pad Prism 6.

Structure (SMILES) | IC50 (A2780 (ovarian) cells) [µM] | IC50 (A549 (NSCLC) cells) [µM] | IC50 [1] [µM]
O=C(Nc1cccc(C(F)(F)F)c1)c1ccn(S(=O)(=O)c2ccc3[nH]ccc3c2)c1 [Compound 46, 1-((1H-indol-5-yl)sulfonyl)-N-(3-(trifluoromethyl)phenyl)-1H-pyrrole-3-carboxamide] | 7.1 | 7.7 | 14.7
CCC(C)c1ccc(NC(=O)C2CCN(S(=O)(=O)c3ccc4cc[nH]c4n3)CC2)cc1 (stereo not drawn) [Compound 65, 1-((1H-pyrrolo[2,3-b]pyridin-6-yl)sulfonyl)-N-(4-(sec-butyl)phenyl) piperidine-4-carboxamide] | 22.3 | 16.2 | 12.5
CCC(C)c1ccc(NC(=O)C2CCN(S(=O)(=O)c3ccc4c(c3)CCN4)CC2)cc1 (stereo not drawn) [Compound 3, N-(4-(sec-butyl)phenyl)-1-(indolin-5-ylsulfonyl) piperidine-4-carboxamide] | > 100 | 19.9 | 19.3
O=C(Nc1ccc(C(F)(F)F)cc1)N1CCN(S(=O)(=O)c2ccc3c(c2)CCN3)CC1 [Compound 14, 4-(indolin-5-ylsulfonyl)-N-(4-(trifluoromethyl)phenyl)piperazine-1-carboxamide] | 24.8 | 33.1 | 26.6
N#Cc1ccc(NC(=O)c2ccn(S(=O)(=O)c3ccc4[nH]ccc4c3)c2)cc1 [Compound 67, 1-((1H-indol-5-yl)sulfonyl)-N-(4-cyanophenyl)-1H-pyrrole-3-carboxamide] | 6.23 | 14.1 | 15.7
CCC(C)c1ccc(NC(=O)c2ccn(S(=O)(=O)c3ccc4c(c3)CCN4)c2)cc1 (stereo not drawn) [Compound 21, N-(4-(sec-butyl)phenyl)-1-(indolin-5-ylsulfonyl)-1H-pyrrole-3-carboxamide] | 20 | 37.4 | 27.1
CCC(C)c1ccc(NC(=O)c2ccn(S(=O)(=O)c3cc(C(N)=O)n(C)c3)c2)cc1 (stereo not drawn) [Compound 18, 4-((3-((4-(sec-butyl)phenyl)carbamoyl)-1H-pyrrol-1-yl)sulfonyl)-1-methyl-1H-pyrrole-2-carboxamide] | 6.8 | 27.6 | 22.3
O=C(Nc1ccc(C(F)(F)F)cc1)C1CCN(S(=O)(=O)c2ccc3c(c2)CCN3)CC1 [Compound 5, 1-(indolin-5-ylsulfonyl)-N-(4-(trifluoromethyl)phenyl)piperidine-4-carboxamide] | 14.8 | 39.6 | 27.4
Cc1ccc(NC(=O)C2CCN(S(=O)(=O)c3ccc4[nH]ccc4c3)CC2)cc1O [Compound 7, 1-((1H-indol-5-yl)sulfonyl)-N-(3-hydroxy-4-methylphenyl)piperidine-4-carboxamide] | 41.4 | 44.4 | 32.6
CCC(C)c1ccc(NC(=O)C2CCN(S(=O)(=O)c3ccn(C)c3)CC2)cc1 (stereo not drawn) [Compound 28, N-(4-(sec-butyl)phenyl)-1-((1-methyl-1H-pyrrol-3-yl)sulfonyl)piperidine-4-carboxamide] | 24.7 | 13 | 11.7
CCC(C)c1ccc(NC(=O)C2CCN(S(=O)(=O)c3ccc4cc[nH]c4c3)CC2)cc1 (stereo not drawn) [Compound 64, 1-((1H-indol-6-yl)sulfonyl)-N-(4-(sec-butyl)phenyl) piperidine-4-carboxamide] | 9.8 | 14 | 4.05
CCC(C)c1ccccc1NC(=O)c1ccn(S(=O)(=O)c2ccc3[nH]ccc3c2)c1 (stereo not drawn) [Compound 36, 1-((1H-indol-5-yl)sulfonyl)-N-(2-(sec-butyl)phenyl)-1H-pyrrole-3-carboxamide] | 6.1 | 8.9 | 22.2
Cn1cc(S(=O)(=O)N2CCN(C(=O)Nc3ccc(C(F)(F)F)cc3)CC2)cc1C(N)=O [Compound 11, 4-((5-carbamoyl-1-methyl-1H-pyrrol-3-yl)sulfonyl)-N-(4-(trifluoromethyl)phenyl)piperazine-1-carboxamide] | 48.4 | > 100 | > 100
O=C(Nc1cccc(C(F)(F)F)c1)C1CCN(S(=O)(=O)c2ccc3[nH]ccc3c2)CC1 [Compound 63, 1-((1H-indol-5-yl)sulfonyl)-N-(3-(trifluoromethyl)phenyl) piperidine-4-carboxamide] | 10.9 | 12.6 | 13.5
O=C(Nc1ccc(Cl)c(F)c1)c1ccn(S(=O)(=O)c2ccc3[nH]ccc3c2)c1 [Compound 69, 1-((1H-indol-5-yl)sulfonyl)-N-(4-chloro-3-fluorophenyl)-1H-pyrrole-3-carboxamide] | 8.66 | 13.3 | 17.3
O=C(Nc1ccc(C(F)(F)F)cc1)c1ccn(S(=O)(=O)c2ccc3[nH]ccc3c2)n1 [Compound 78, 1-((1H-indol-5-yl)sulfonyl)-N-(4-(trifluoromethyl)phenyl)-1H-pyrazole-3-carboxamide] | 5.44 | 18.4 | 21.6
CCC(C)c1ccc(NC(=O)C2CCN(S(C)(=O)=O)CC2)cc1 (stereo not drawn) [Compound 29, N-(4-(sec-butyl)phenyl)-1-(methylsulfonyl) piperidine-4-carboxamide] | > 100 | > 100 | > 100
CCCc1ccc(NC(=O)c2ccn(S(=O)(=O)c3ccc4[nH]ccc4c3)n2)cc1 [Compound 109, 1-((1H-indol-5-yl)sulfonyl)-N-(4-propylphenyl)-1H-pyrazole-3-carboxamide] | 8.65 | 5.53 | 11
O=C(Nc1ccc(Cl)c(Cl)c1)c1ccn(S(=O)(=O)c2ccc3[nH]ccc3c2)c1 [Compound 71, 1-((1H-indol-5-yl)sulfonyl)-N-(3,4-dichlorophenyl)-1H-pyrrole-3-carboxamide] | 7.49 | 9.28 | 8.9
O=C(Nc1ccc(F)c(F)c1)c1ccn(S(=O)(=O)c2ccc3[nH]ccc3c2)c1 [Compound 68, 1-((1H-indol-5-yl)sulfonyl)-N-(3,4-difluorophenyl)-1H-pyrrole-3-carboxamide] | 8.53 | 16.6 | 19.1

The remaining molecules from weak to strong by IC50 (A2780 (ovarian) cells), led by results:

IC50 (A2780 (ovarian) cells) [µM] | IC50 (A549 (NSCLC) cells) [µM] | Structure (SMILES) | IC50 [1] [µM]
5.3 | 11.6 | O=C(Nc1ccc(C(F)(F)F)cc1)c1ccn(S(=O)(=O)c2ccc3c(c2)CCN3)c1 [Compound 23, 1-(indolin-5-ylsulfonyl)-N-(4-(trifluoromethyl)phenyl)-1H-pyrrole-3-carboxamide] | 12.8
4.6 | 6.2 | CCC(C)c1ccc(NC(=O)c2ccn(S(=O)(=O)c3ccc4[nH]c(C)c(C)c4c3)c2)cc1 (stereo not drawn) [Compound 59, N-(4-(sec-butyl)phenyl)-1-((2,3-dimethyl-1H-indol-5-yl)sulfonyl)-1H-pyrrole-3-carboxamide] | 10.3
4.3 | 5.8 | CC(C)c1ccc(NC(=O)c2ccn(S(=O)(=O)c3ccc4[nH]ccc4c3)c2)cc1 [Compound 37, 1-((1H-indol-5-yl)sulfonyl)-N-(4-isopropylphenyl)-1H-pyrrole-3-carboxamide] | 10.8
4.1 | 6.3 | O=C(Nc1cccc(F)c1)c1ccn(S(=O)(=O)c2ccc3[nH]ccc3c2)c1 [Compound 49, 1-((1H-indol-5-yl)sulfonyl)-N-(3-fluorophenyl)-1H-pyrrole-3-carboxamide] | 15.4
4 | 17.3 | CC(C)(C)c1ccc(S(=O)(=O)n2ccc(C(=O)Nc3ccc(F)cc3)c2)cc1 [Compound 92, 1-((4-(tert-butyl)phenyl)sulfonyl)-N-(4-fluorophenyl)-1H-pyrrole-3-carboxamide] | 16.6
3.9 | 3.9 | CCC(C)c1ccc(NC(=O)c2ccn(S(=O)(=O)c3ccc4[nH]c(C)cc4c3)c2)cc1 (stereo not drawn) [Compound 57, N-(4-(sec-butyl)phenyl)-1-((2-methyl-1H-indol-5-yl)sulfonyl)-1H-pyrrole-3-carboxamide] | 7.22
2.5 | 8.7 | Cc1cccc(NC(=O)c2ccn(S(=O)(=O)c3ccc4[nH]ccc4c3)c2)c1 [Compound 44, 1-((1H-indol-5-yl)sulfonyl)-N-(m-tolyl)-1H-pyrrole-3-carboxamide] | 15.2
2.2 | 5.2 | Cc1ccccc1NC(=O)c1ccn(S(=O)(=O)c2ccc3[nH]ccc3c2)c1 [Compound 45, 1-((1H-indol-5-yl)sulfonyl)-N-(o-tolyl)-1H-pyrrole-3-carboxamide] | 27
2.1 | 3.8 | CCC(C)c1ccc(NC(=O)c2ccn(S(=O)(=O)c3ccc4[nH]cc(C)c4c3)c2)cc1 (stereo not drawn) [Compound 58, N-(4-(sec-butyl)phenyl)-1-((3-methyl-1H-indol-5-yl)sulfonyl)-1H-pyrrole-3-carboxamide] | 14
1.8 | 4 | O=C(Nc1ccccc1F)c1ccn(S(=O)(=O)c2ccc3[nH]ccc3c2)c1 [Compound 50, 1-((1H-indol-5-yl)sulfonyl)-N-(2-fluorophenyl)-1H-pyrrole-3-carboxamide] | 11.5
